One data set relates to rat primary hepatocytes. Description: FACS analysis of ΔΨm and ROS, rat primary hepatocytes. The data set is classed as cell-based. Conditions: for Peroxides Production (%) Inducer + UDCA: 100 μM UDCA pretreatment 60 min; for inhibition at 100 µM: Rattus norvegicus, Hepatocyte, 100 μM UDCA, read-out: % Inhibition of peroxides production; for Inhibition % Superoxide Anion / Inhibition % _Ψm: inhibition by UDCA. How it is done:
(§1) A ΔΨm and ROS measurement. ΔΨm and ROS production were measured by FACScan (Becton Dickinson) analysis. Freshly isolated rat hepatocytes were cultured for 3 h as described above and then incubated with William's E medium supplemented with either 100 μM DCA, 100 μM UDCA, equal molar amounts of both, or no bile acid (control), for 6 h. Rat hepatocytes were also cultured with either 1% ethanol, 100 μM UDCA, ethanol+UDCA, or no addition (control) for 4 h. HuH-7 cells, Hep G2 cells, and human osteogenic sarcoma Saos-2 cells were incubated with TGF-β1, anti-Fas antibody or okadaic acid, respectively, for 48 h under the same conditions as outlined above. For combination studies, cells were pretreated with UDCA or hyodeoxycholic acid for 60 min prior to addition of DCA, ethanol, TGF-β1, anti-Fas antibody or okadaic acid. Aliquots of 1.0×10^6 cells were incubated for 15 min at 37° C. with 50 nM 3,3′-dihexyloxacarbocyanine iodide [DiOC6(3)], 2 μM dihydroethidium (HE), or 5 μM 2′,7′-dichlorofluorescin diacetate (H2DCFDA; Molecular Probes, Inc. Eugene, Oreg.) and analyzed by cytofluorometry (Cathcart et al., Anal. Biochem., 134, 111-116 (1983); Zamzami et al., J. Exp. Med., 181, 1661-1672 (1 995); Carter et al., J. Leukocyte Biol., 55, 253-258 (1994)).
(§2) Rat primary hepatocytes were incubated with 100 μM DCA and 1% ETOH for 6 h and 4 h, respectively; HuH-7 cells with 1 nM TGF-β1 for 48 h; Hep G2 cells with 0.5 μg/ml anti-Fas antibody (CH-11) for 48 h, and Saos-2 cells with 50 nM okadaic acid (OA) for 48 h. In each combination group, cells were pretreated with 100 μM UDCA alone for 60 min prior to addition of the inducer. Aliquots of 1.0×10^6 cells were incubated for 15 min at 37° C. with 5 μM 2′,7′-dichlorofluorescin diacetate (H2DCFDA) and analyzed by cytofluorometry.

The subject of a further data set is HuH-7 cells. The experiment in a line: DCA-induced apoptosis, Hoechst staining, HuH-7 cells. The data set is classed as cell-based. To be noted: for percent of apoptotic cells: 6 h. An excerpt: (§3) Cell culture and preparation of rat primary hepatocytes. Rat primary hepatocytes were isolated from male Sprague-Dawley rats (200-250 g) by collagenase perfusion as described previously (Mariash et al., J. Biol. Chem, 261, 9583-9586 (1986)). Briefly, rats were aneshtesized with phenobarbitol and the livers were perfused with 0.05% collagenase. Hepatocyte suspensions were obained by passing digested livers through 0.125 mm gauze and washing cells in modified Eagles' medium (MEM, Life Technologies, Inc., Grand Island, N.Y.). […] After isolation, hepatocytes were resuspended in William's E medium (Life Technologies, Inc., Grand Island, N.Y.) supplemented with 26 mM sodium bicarbonate, 23 mM HEPES, 0.01 U/ml insulin, 2 mM L-glutamine, 10 nM dexamethasone, 5.5 mM glucose, 100 U/ml penicillin and 100 U/ml streptomycin and then 1.0×10^6 cells were plated on 35×10 mm […] tissue culture dishes (Becton Dickinson Labware, Lincoln Park, N.J.). The cells were maintained at 37° C. in a humidified atmosphere of 5% CO2 for 3 h. Plates were then washed with medium to remove dead cells, and medium containing 10% heat-inactivated FBS (55° C. for 30 min) was added (Atlanta Biologicals, Inc., Norcross, Ga.). Aliquots of 1.0×10^5 human (HuH-7) hepatoma cells were plated on 35×10 mm tissue culture dishes (Becton Dickinson Labware) and maintained at 37° C. in Dulbecco's MEM (Atlanta Biologicals, Inc.) supplemented with 10% FBS, 100 U/ml penicillin and 100 u/ml streptomycin for 3 h prior to incubation with bile acids.
Incubation of cells with bile acids. Freshly isolated rat hepatocytes were cultured for 3 h as described above and then incubated with William's E medium supplemented with either 50 μM DCA, 50 μM UDCA (Sigma Chemical Co., St. Louis, Mo.), their combination, or no bile acid (control), for 2 h, 4 h, and 6 h. HuH-7 cells cultured for 3 h as described above were incubated with Dulbecco's MEM medium supplemented with either 50 μM, 100 μM, 500 μM, or 1000 μM DCA, UDCA, DCA+UDCA, or no addition (control) for 6 h and 24 h. The medium was gently removed at the indicated time points and scored for nonviable cells by trypan blue dye exclusion. The attached cells were fixed for morphologic assessment of apoptotic changes.
Morphological evaluation of apoptosis. Morphology was performed as described previously (Oberhammer et al., Proc. Natl. Acad. Sci. USA 89, 5408-5412 (1992)). Briefly, after fixation (with 4% formaldehyde in PBS, pH 7.4, for 10 min at room temperature), the cells were incubated with Hoechst dye 33258 (Sigma Chemical Co.) at 5 μg/ml in PBS for 5 min, washed with PBS and mounted with PBS:glycerol (3:1, v/v). Fluorescence was visualized with a Zeiss standard fluorescence microscope (Carl Zeiss, Inc., Thornwood, N.Y.). Photographs were taken with Kodak Ektar-1000 film (Eastman Kodak Co.). Stained nuclei were scored by blind analysis and categorized according to the condensation and staining characteristics of chromatin. Normal nuclei were identified as noncondensed chromatin dispersed over the entire nucleus. Apoptotic nuclei were identified by condensed chromatin, contiguous to the nuclear membrane, as well as nuclear fragmentation of condensed chromatin. Three fields per dish of approximately 500 nuclei were counted; mean values are expressed as the percent of apoptotic nuclei.

In another data set the test system is primary rat hepatocytes. Description: DCA-induced apoptosis, Hoechst staining, primary rat hepatocytes. The data set is classed as cell-based.
Excerpt: as §3
Incubation of cells with bile acids. […] The medium was gently removed at the indicated time points and scored for nonviable cells by trypan blue dye exclusion. […]
Morphological evaluation of apoptosis. […] Fluorescence was visualized with a Zeiss standard fluorescence microscope (Carl Zeiss, Inc., Thornwood, N.Y.). […] Stained nuclei were scored by blind analysis and categorized according to the condensation and staining characteristics of chromatin. […] Three fields per dish of approximately 500 nuclei were counted; mean values are expressed as the percent of apoptotic nuclei.

Another data set has as its system Saos-2 cells. The experiment in a line: FACS analysis of ΔΨm and ROS, Saos-2 cells. It is filed as cell-based, human. Here is the method: as §1, §2
For orientation: A flow cytometer gives signals particle by particle.

Setting [1] is: inducer OA, Saos-2, inhibition by UDCA.

Where two headings read alike, the source gives them in different places.

The values that follow come from patent publication US20030044413A1, “Methods of limiting apoptosis of cells” (Regents of the University of Minnesota, priority 1998, published 2003).

As for `C[C@H](CCC(=O)O)[C@H]1CC[C@H]2[C@@H]3CC[C@@H]4C[C@H](O)CC[C@]4(C)[C@H]3C[C@H](O)[C@]12C` [DCA, deoxycholic acid], the “Peroxides Production (%) Inducer” value in the data set with rat primary hepatocytes (100 μM DCA, 6 h, hepatocytes) turned out to be 12.8 ± 0.9%. Besides, the entries for the “percent of apoptotic cells” value in the data set with HuH-7 cells (100 μM DCA) and in the data set on HuH-7 cells (1000 μM DCA) were 16.8% and 66.7%, respectively. Besides, the apoptotic cells in the data set with HuH-7 cells (100 μM DCA, 24 h) turned out to be 20±2.8%. Also, the necrosis result in the data set with HuH-7 cells (elevated bile acid concentrations (up to 1000 μM DCA)) was “no apparent necrosis”. Also, the “percentage of apoptotic cells, increase over control” value in the data set on primary rat hepatocytes (50 μM DCA, 2 h) was 8 fold.

As usually defined, the inhibition is the percentage by which the read-out fell short of the control. By cell viability is commonly meant a per cent measure of how many cells are alive, often set against a control. As to `C[C@H](CCC(=O)O)[C@H]1CC[C@H]2[C@@H]3[C@@H](O)C[C@@H]4C[C@H](O)CC[C@]4(C)[C@H]3CC[C@]12C` [UDCA, ursodeoxycholic acid], the “Peroxides Production (%) Inducer + UDCA” value in the data set on rat primary hepatocytes (100 μM DCA 6 h) is 4.4 ± 1.5 %; in the data set on rat primary hepatocytes (1% ETOH 4 h), 10.7 ± 3.6 %; with Saos-2 cells (50 nM OA 48 h, 100 μM UDCA pretreatment 60 min), 5.4 ± 1.5 %. Further, the inhibition at 100 µM was 65.8 ± 12.4% in the data set with rat primary hepatocytes (inducer DCA, hepatocytes); 39.5 ± 12.6% in the data set on rat primary hepatocytes (inducer ETOH, hepatocytes); 64.6 ± 7.5% in the data set on Saos-2 cells (Homo sapiens, inducer OA, Saos-2, 100 μM UDCA, read-out: % Inhibition of peroxides production). Besides, the “Inhibition % Superoxide Anion” value in the data set on rat primary hepatocytes (inducer DCA, hepatocytes) is recorded as 93.5 ± 17.2%; in the data set on rat primary hepatocytes (inducer ETOH, hepatocytes), 86.6 ± 5.6%; in the data set with Saos-2 cells (setting [1]), 77.6 ± 18.1%. Besides, the “Inhibition % _Ψm” value in the data set with rat primary hepatocytes (inducer DCA, hepatocytes) turned out to be 60.2 ± 6.1 %; in the data set on rat primary hepatocytes (inducer ETOH, hepatocytes) it was 61.7 ± 33.9%; with Saos-2 cells (setting [1]) it was 21.9 ± 10.7 %. Further, the apoptotic cells with HuH-7 cells (100 μM DCA + UDCA combination, 24 h) was found to be 11.5±2.1%. For the same compound, the “increase in cell viability by coincubation with UDCA” value with HuH-7 cells (DCA + UDCA, 24 h) amounted to 44±7.1%. Also, in the data set with primary rat hepatocytes (50 μM DCA + 50 μM UDCA, 6 h), the cell viability came out at 88.5±4.9%. In the data set on primary rat hepatocytes (inducer DCA, hepatocytes, inhibition by UDCA), the “Inhibition % Apoptosis” value is 90.9 ± 4.6%.

Turning to `C=C1[C@@H](O)[C@@H]2O[C@]3(CC[C@H](/C=C/[C@@H](C)[C@@H]4CC(C)=C[C@@]5(O[C@H](C[C@@](C)(O)C(=O)O)CC[C@H]5O)O4)O3)CC[C@H]2O[C@@H]1[C@@H](O)C[C@H](C)[C@H]1O[C@@]2(CCCCO2)CC[C@H]1C` [okadaic acid], the “Peroxides Production (%) Inducer” value with Saos-2 cells (50 nM OA, 48 h, Saos-2) amounted to 15.0 ± 1.1%.
